The subject of series [1] is Mus musculus. The series can be described thus: Hypoglycemic activity in non-fasted db/db mouse assessed as decrease in blood glucose concentration at 25 nmol/kg, sc by OGTT method. It is filed as functional, organism-based.
Series [2] deals with T1, Glucagon-like peptide 1 receptor (Homo sapiens, UniProt P43220). Nature of the series: Agonist activity at human GLP-1R expressed in HEK293 cells assessed as stimulation of cAMP accumulation incubated for 20 mins in presence of 0% HSA. It is filed as functional, cell-based. (Changes in cAMP serve as a functional read-out for many G protein-coupled receptors.)
T1 sequence (P43220 whole entry): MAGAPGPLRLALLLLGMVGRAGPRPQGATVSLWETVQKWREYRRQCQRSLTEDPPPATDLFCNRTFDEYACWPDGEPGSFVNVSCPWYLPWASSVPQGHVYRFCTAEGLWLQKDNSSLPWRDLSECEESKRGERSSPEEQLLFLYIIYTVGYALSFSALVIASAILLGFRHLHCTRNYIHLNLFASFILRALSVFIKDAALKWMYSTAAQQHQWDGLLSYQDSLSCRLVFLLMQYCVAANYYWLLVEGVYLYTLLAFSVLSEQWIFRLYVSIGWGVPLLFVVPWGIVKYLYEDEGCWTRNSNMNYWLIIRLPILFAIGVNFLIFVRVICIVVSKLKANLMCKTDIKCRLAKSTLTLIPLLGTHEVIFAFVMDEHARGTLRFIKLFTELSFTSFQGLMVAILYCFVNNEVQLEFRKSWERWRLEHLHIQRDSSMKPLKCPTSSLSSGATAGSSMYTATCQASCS
Series [3] has as its target T1, Glucagon-like peptide 1 receptor. Nature of the series: Ratio of EC50 for agonist activity at human GLP-1R expressed in HEK293 cells in presence of 4.4% HSA to EC50 for agonist activity at human GLP-1R expressed in HEK293 cells in presence of 0% HSA. The format is cell-based.
For series [4], the system named is Mus musculus. Nature of the series: Reduction in fasted hyperglycemia in C57BL/6 mouse model of diet induced obesity at 25 nmol/kg, sc BID for 1 week relative to control. The settings on record: time 1.0 weeks. It is filed as functional, organism-based.
Series [5] concerns Mus musculus. Nature of the series: Reduction in food intake in C57BL/6 mouse model of diet induced obesity at 25 nmol/kg, sc BID for 1 week relative to control. It is filed as functional, organism-based. The settings on record: time 1.0 weeks.
In series [6] the target is T1, Glucagon-like peptide 1 receptor. Nature of the series: Agonist activity at human GLP-1R expressed in HEK293 cells assessed as stimulation of cAMP accumulation incubated for 20 mins in presence of 4.4% HSA. It is filed as functional, cell-based.
The target of the next series is serum albumin (Homo sapiens, UniProt P02768). Nature of the series: Binding affinity to human serum albumin in PBS pH 7.4 at 100 ug/mL incubated for 2 hrs by LC-MS/MS analysis relative to control. It is filed as ADME. The settings on record: at 100 µg/mL, read-out: PB (converted).
serum albumin, sequence (P02768 whole entry): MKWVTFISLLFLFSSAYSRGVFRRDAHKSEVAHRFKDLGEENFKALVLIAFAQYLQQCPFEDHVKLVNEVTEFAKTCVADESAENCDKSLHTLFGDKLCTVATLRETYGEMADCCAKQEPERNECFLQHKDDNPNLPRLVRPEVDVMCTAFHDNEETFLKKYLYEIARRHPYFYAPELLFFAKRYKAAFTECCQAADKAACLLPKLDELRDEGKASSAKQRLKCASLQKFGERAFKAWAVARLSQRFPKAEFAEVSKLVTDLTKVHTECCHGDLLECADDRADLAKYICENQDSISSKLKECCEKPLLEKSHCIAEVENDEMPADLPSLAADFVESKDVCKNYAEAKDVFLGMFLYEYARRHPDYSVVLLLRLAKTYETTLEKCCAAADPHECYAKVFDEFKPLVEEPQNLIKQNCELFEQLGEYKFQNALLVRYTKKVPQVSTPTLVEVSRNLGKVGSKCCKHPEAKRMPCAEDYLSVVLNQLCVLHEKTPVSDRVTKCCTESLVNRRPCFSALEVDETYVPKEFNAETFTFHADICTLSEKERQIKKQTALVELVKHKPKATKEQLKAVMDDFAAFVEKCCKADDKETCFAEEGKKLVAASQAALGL
Series [7] relates to Mus musculus. Nature of the series: Reduction in body weight in C57BL/6 mouse model of diet induced obesity at 25 nmol/kg, sc BID for 1 week relative to control. It is filed as functional. The arrangement: scale not given: the % may be the effect or the level left. The settings on record: time 1 weeks.

Activity calls are given as the source filed them. No cut-off for these calls is given here. Where a SMILES comes first, the peptide text is derived from it.

As for `CCCCCCCCCCCCCCCC(=O)NCCCCCCNC(=O)C1CCCCNC(=O)CCN2C(=O)CC(SC[C@H](NC(=O)[C@H](CCCCN)NC(=O)[C@H](C)NC(=O)[C@H](C)NC(=O)[C@H](CCC(=O)O)NC(=O)[C@H](CCC(=O)O)NC(=O)[C@H](CCC(=O)O)NC(=O)[C@H](CC(C)C)NC(=O)[C@H](Cc3ccc(O)cc3)NC(=O)[C@H](CCC(=O)O)NC(=O)[C@@H](NC(=O)[C@@H](NC(=O)[C@H](CC(=O)O)NC(=O)[C@H](CC(N)=O)NC(=O)[C@@H](NC(=O)[C@H](Cc3ccc(O)cc3)NC(=O)[C@@H](NC(=O)CNC(=O)[C@H](CCC(=O)O)NC(=O)C(C)(C)NC(=O)[C@@H](N)Cc3c[nH]cn3)[C@@H](C)O)[C@@H](C)O)C(C)C)[C@@H](C)O)C(=O)N[C@@H](Cc3ccccc3)C(=O)N[C@@H]([C@@H](C)CC)C(=O)N[C@@H](CCC(=O)O)C(=O)N[C@@H](Cc3c[nH]c4ccccc34)C(=O)N[C@@H](CC(C)C)C(=O)N[C@@H]([C@@H](C)CC)C(=O)N[C@H](C(=O)NCC(=O)N[C@@H](CCCCN)C(=O)N3CCC[C@H]3C(=O)N[C@@H](CO)C(=O)N[C@@H](CO)C(=O)NCC(=O)N[C@@H](C)C(=O)N3CCC[C@H]3C(=O)N3CCC[C@H]3C(=O)N3CCC[C@H]3C(=O)N[C@@H](CO)C(N)=O)CSC3CC(=O)N(CCC(=O)N1)C3=O)C2=O` (stereo partly drawn) (HELM PEPTIDE1{H.[Aib].E.G.T.Y.T.N.D.V.T.E.Y.L.E.E.E.A.A.K.C.F.I.E.W.L.I.C.G.K.P.S.S.G.A.P.P.P.S.[am]}|CHEM1{[CCCCCCCCCCCCCCCC(=O)NCCCCCCNC(=O)C(CCCCNC(=O)CCN1C(=O)CC([*:1])C1=O)NC(=O)CCN1C(=O)CC([*:2])C1=O]}$PEPTIDE1,CHEM1,21:R3-1:R1|PEPTIDE1,CHEM1,28:R3-1:R2$$$V2.0), the result in the series with Mus musculus [1], in the series on Mus musculus [4] and with Mus musculus [5] was Active. Moreover, the half-maximal effective concentration (EC50) in series [2] stood at 0.054 nM; in series [6], 1.3 nM. Further, the Ratio EC50 in series [3] was 24.1. Also, the fraction unbound at 2 h, 100 ug/mL at serum albumin was 0.15. Further, the Activity with Mus musculus [7] came out at 15.2%.

As a reminder, the EC50 is the midpoint of the concentration-response curve.

For the origin of these results see ChEMBL document CHEMBL4699602, “Stapled and Xenopus Glucagon-Like Peptide 1 (GLP-1)-Based Dual GLP-1/Gastrin Receptor Agonists with Improved Metabolic Benefits in Rodent Models of Obesity and Diabetes” (J Med Chem, 2020).
